From patent publication US11161876B2, “Anti-inflammatory nanofibers” (Northwestern University, priority 2015, dated 2021)
* marks the point of attachment. C16 alkyl = CCCCCCCCCCCCCCCC*

Legend:
[1] = test system: Rat Bladder Augmentation Model; assay: Bladder stone formation in regenerating bladders; format: in vivo; conditions: for Bladder Stone Formation (shown as percentage of animals forming stones): 5 weeks post-augmentation; for size of bladder stones formed, in words: rat, in vivo
Excerpt: Bladder stone formation can be caused by a myriad of factors including those based upon diet as well as genetic makeup and underlying bladder conditions (refs. 57,58; herein incorporated by reference in its entirety).
(§1) Athymic female rats (weighing ˜200 g and 8-10 weeks old; National Cancer Institute Animal Production Program) underwent bladder augmentation (ref. 15; herein incorporated by reference in its entirety). Athymic rats were chosen for this study to solely examine the innate immune response to inflammation without influence of the adaptive immune response. In order to induce anesthesia, animals were given intraperitoneal injections of 60 mg/kg ketamine and 5 mg/kg xylazine. A second injection consisting of Buprenex (1 mg/kg) was administered subcutaneously to alleviate any pain/discomfort during and following surgical procedures. An approximate 1.5 cm midline vertical skin incision was created to expose the abdominal fascia and muscles. This was immediately followed by the separation of the wall leading to the identification of the bladder. An approximate 70% supratrigonal cystectomy was performed from anterior to posterior creating a clamshell. Immediately prior to bladder augmentation procedures, samples of the pro-inflammatory biological scaffold, small intestinal submucosa (SIS (0.5×0.5 cm); Cook Biotech.) (refs. 12,13,16; herein incorporated by reference in their entireties) were thoroughly dip-coated separately in one of the previously described AIF-PAs following gelation procedures. The sections of SIS were dip-coated for approximately 20 seconds and allowed to adhere to the SIS for an additional 30 seconds. Dip-coating procedures were performed at room temperature in air. The cystectomized bladder defect was then augmented with: 1) SIS (non-AIF-PA coated SIS; n=8 animals over both time-points); 2) AIF-PA1 coated SIS (denoted as SIS/AIF-PA1; n=11 animals over both time-points); 3) AIF-PA2 coated SIS (denoted as SIS/AIF-PA2; n=8 animals over both time-points); 4) AIF-PA3 coated SIS (denoted as SIS/AIF-PA3; n=3); 5) AIF-PA4 coated SIS (denoted as SIS/AIF-PA4; n=3 animals); 6) AIF-PA5 coated SIS (denoted as SIS/AIF-PA5; n=3 animals); and 7) AIFC-PA6 coated SIS (denoted as SIS/AIFC-PA6; n=9 animals over both time-points). The bladder was finally covered with omentum after being closed in a watertight manner utilizing 7-0 polyglactin suture. The abdominal wall was then closed in a single layer with 5-0 ethibond running suture and the skin re-approximated with 9 mm autoclips. Each group was sacrificed at 10 day and 5 week time-points.

[2] = test system: Rat Bladder Augmentation Model; assay: Granuloma quantification (CD68 immunofluorescence) in augmented bladder tissue; format: in vivo
Excerpt: Granulation tissue is composed of several extracellular matrices such as collagen and a variety of immune cell types including lymphocytes, neutrophils, and especially macrophages (refs. 54-56; herein incorporated by reference in their entireties). Extravesical granulomas were found in regenerating bladder muscle and submucosa but not in the epithelial layer (urothelium) that lines the interior of the bladder wall. […] Granulation tissue was identified by a trained Pathologist (M.D.H.) utilizing immunofluorescence imaging with the macrophage marker CD68 (green). […] Images are representative examples of multiple stained tissue samples. See Table 1 for granuloma quantification. Magnification 100× (Scale bar, 200 μm).
as §1
Tissue sections comprised of SIS alone, SIS/AIF-PA1, SIS/AIF-PA2, and SIS/AIF-PA6 augmentations were subjected to immunofluorescence staining by initially undergoing antigen retrieval which consisted of 15 min of boiling in citrate buffer (0.01M citrate solution, pH 6.0 with 0.05% Tween-20) followed by cooling at room temperature for approximately 20 minutes. The antibody staining process consisted of a blocking step for 15 min in bovine serum albumin (BSA, 5 mg/ml) followed by a 40 minutes incubation at room temperature with the primary antibody. After washing with DPBS, slides were incubated for 30 min with a secondary antibody and eventually rinsed with DPBS and air dried. Slides were mounted with Vectashield (Vector Laboratories). […]

IL-10 = IL-10 expression in regenerated bladder tissue (immunofluorescence); format: in vivo, rat; conditions: for Cytokine expression (shown as percentage of cells staining positive) Anti-inflammatory IL-10: 5 weeks post-augmentation, means ± SE; for percentage of cells staining positive for IL-10: 10 days post-augmentation
Procedure: as §1
Tissue sections comprised of SIS alone, SIS/AIF-PA1, SIS/AIF-PA2, and SIS/AIF-PA6 augmentations were subjected to immunofluorescence staining by initially undergoing antigen retrieval which consisted of 15 min of boiling in citrate buffer (0.01M citrate solution, pH 6.0 with 0.05% Tween-20) followed by cooling at room temperature for approximately 20 minutes. The antibody staining process consisted of a blocking step for 15 min in bovine serum albumin (BSA, 5 mg/ml) followed by a 40 minutes incubation at room temperature with the primary antibody. After washing with DPBS, slides were incubated for 30 min with a secondary antibody and eventually rinsed with DPBS and air dried. Slides were mounted with Vectashield (Vector Laboratories). Primary antibodies were directed against epitopes for the inflammatory markers CD68 (macrophage) (refs. 18,19; herein incorporated by reference in their entireties) MPO (neutrophil) (ref. 20; herein incorporated by reference in its entirety) or the inflammation-related proteins IL1β, TNFα, IL-10, IL-13, CD206 (M2 macrophage) (refs. 21-25; herein incorporated by reference in their entireties) and CD86 (M1 macrophage) (ref. 26; herein incorporated by reference in its entirety). Antibodies directed against the ECM in regenerating bladder tissue (including COL4A3 and fibronectin) were also utilized. Alexa Red 555 or FITC conjugated secondary antibodies (Molecular Probes) were utilized for visualization (ref. 15; herein incorporated by reference in its entirety). […]

## C16-VVVAAAEEEHDMNKVLDL (SEQ ID NO:2) ({C16 alkyl}-VVVAAAEEEHDMNKVLDL-NH2) [SIS/AIF-PA2, anti-inflammatory peptide amphiphile, tested dip-coated on small intestinal submucosa (SIS) scaffold]
[1]
  Bladder Stone Formation (shown as percentage of animals forming stones): 16.7 percentage
  size of bladder stones formed, in words: a fraction of the size found in control animals
[2]; 5W post-augmentation
  Maximum Granuloma Size: 4.08 ± 0.38 10^-3 mm^2
  Mean Granuloma Size: 3.00 ± 0.20 10^-3 mm^2
  Minimum Granuloma Size: 2.09 ± 0.39 10^-3 mm^2
  Number of Granulomas: 3.00 ± 1.00
  Number of Large Granulomas (>0.01 mm^2): 0
[2]; 5W samples
  granuloma formation, in words: diminished
[2]; 10D post-augmentation
  Maximum Granuloma Size: 11.99 ± 3.62 10^-3 mm^2
  Mean Granuloma Size: 5.95 ± 1.16 10^-3 mm^2
  Minimum Granuloma Size: 2.65 ± 0.17 10^-3 mm^2
  Number of Granulomas: 4.00 ± 1.00
  Number of Large Granulomas (>0.01 mm^2): 0.67 ± 0.33
[2]; 10 day samples
  granuloma formation, in words: lesser degree of granuloma formation in size and frequency
IL-10
  Cytokine expression (shown as percentage of cells staining positive) Anti-inflammatory IL-10: 33.2 ± 2.3 percentage
  percentage of cells staining positive for IL-10: 56.2±3.4%

## C16-VVVAAAEEEKLMSQKMVD (SEQ ID NO:6) ({C16 alkyl}-VVVAAAEEEKLMSQKMVD-NH2) [SIS/AIFC-PA6, reference compound]
[1]
  Bladder Stone Formation (shown as percentage of animals forming stones): 42.9 percentage
  size of bladder stones formed, in words: quite large in size
[2]; 5W post-augmentation
  Maximum Granuloma Size: 14.80 ± 2.30 10^-3 mm^2
  Mean Granuloma Size: 6.10 ± 0.51 10^-3 mm^2
  Minimum Granuloma Size: 2.21 ± 0.30 10^-3 mm^2
  Number of Granulomas: 7.00 ± 1.08
  Number of Large Granulomas (>0.01 mm^2): 1.00 ± 0.41
[2]; 5W samples
  granuloma formation, in words: accumulation of granulomas
[2]; 10D post-augmentation
  Maximum Granuloma Size: 110.89 ± 1.51 10^-3 mm^2
  Mean Granuloma Size: 29.64 ± 0.74 10^-3 mm^2
  Minimum Granuloma Size: 6.12 ± 0.01 10^-3 mm^2
  Number of Granulomas: 10.00 ± 1.00
  Number of Large Granulomas (>0.01 mm^2): 6.00 ± 1.00
[2]; 10 day samples
  granuloma formation, in words: large granuloma formation
IL-10
  Cytokine expression (shown as percentage of cells staining positive) Anti-inflammatory IL-10: 21.1 ± 2.1 percentage
  percentage of cells staining positive for IL-10: 27.8±3.0%

## C16-VVVAAAEEEMQMKKVLDS (SEQ ID NO:1) ({C16 alkyl}-VVVAAAEEEMQMKKVLDS-NH2) [SIS/AIF-PA1, anti-inflammatory peptide amphiphile, tested dip-coated on small intestinal submucosa (SIS) scaffold]
[1]
  Bladder Stone Formation (shown as percentage of animals forming stones): 25.0 percentage
  size of bladder stones formed, in words: a fraction of the size found in control animals
[2]; 5W post-augmentation
  Maximum Granuloma Size: 1.62 ± 1.15 10^-3 mm^2
  Mean Granuloma Size: 1.26 ± 0.68 10^-3 mm^2
  Minimum Granuloma Size: 0.97 ± 0.65 10^-3 mm^2
  Number of Granulomas: 1.75 ± 1.03
  Number of Large Granulomas (>0.01 mm^2): 0
[2]; 5W samples
  granuloma formation, in words: diminished
[2]; 10D post-augmentation
  Maximum Granuloma Size: 23.39 ± 7.66 10^-3 mm^2
  Mean Granuloma Size: 8.77 ± 1.32 10^-3 mm^2
  Minimum Granuloma Size: 2.67 ± 0.15 10^-3 mm^2
  Number of Granulomas: 4.00 ± 1.00
  Number of Large Granulomas (>0.01 mm^2): 1.33 ± 0.33
[2]; 10 day samples
  granuloma formation, in words: lesser degree of granuloma formation in size and frequency
IL-10
  Cytokine expression (shown as percentage of cells staining positive) Anti-inflammatory IL-10: 30.0 ± 1.6 percentage
  percentage of cells staining positive for IL-10: 52.0±3.1%
